We go through 24 compounds from patent publication US5462954A, “Substituted phenyl phenol leukotriene antagonists” (Eli Lilly and Company, priority 1994, dated 1995).

Structures are written as SMILES. Structures can show the parent of a compound that is named as a salt.

In experiment [1] the target is T1, human synovial phospholipase A2 (PLA2) (Homo sapiens, UniProt P14555).
T1 sequence (P14555 21-144): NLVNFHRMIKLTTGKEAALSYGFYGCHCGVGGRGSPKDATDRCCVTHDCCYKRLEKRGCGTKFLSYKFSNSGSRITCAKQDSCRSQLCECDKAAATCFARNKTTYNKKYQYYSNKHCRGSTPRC
As to the kind of experiment: in vitro inhibition of human synovial phospholipase A2 (PLA2). The experiment is classed as biochemical.

Experiment [2] deals with T2, human cytosolic phospholipase A2 (PLA2) (Homo sapiens, UniProt P47712).
T2 sequence (P47712 1-749): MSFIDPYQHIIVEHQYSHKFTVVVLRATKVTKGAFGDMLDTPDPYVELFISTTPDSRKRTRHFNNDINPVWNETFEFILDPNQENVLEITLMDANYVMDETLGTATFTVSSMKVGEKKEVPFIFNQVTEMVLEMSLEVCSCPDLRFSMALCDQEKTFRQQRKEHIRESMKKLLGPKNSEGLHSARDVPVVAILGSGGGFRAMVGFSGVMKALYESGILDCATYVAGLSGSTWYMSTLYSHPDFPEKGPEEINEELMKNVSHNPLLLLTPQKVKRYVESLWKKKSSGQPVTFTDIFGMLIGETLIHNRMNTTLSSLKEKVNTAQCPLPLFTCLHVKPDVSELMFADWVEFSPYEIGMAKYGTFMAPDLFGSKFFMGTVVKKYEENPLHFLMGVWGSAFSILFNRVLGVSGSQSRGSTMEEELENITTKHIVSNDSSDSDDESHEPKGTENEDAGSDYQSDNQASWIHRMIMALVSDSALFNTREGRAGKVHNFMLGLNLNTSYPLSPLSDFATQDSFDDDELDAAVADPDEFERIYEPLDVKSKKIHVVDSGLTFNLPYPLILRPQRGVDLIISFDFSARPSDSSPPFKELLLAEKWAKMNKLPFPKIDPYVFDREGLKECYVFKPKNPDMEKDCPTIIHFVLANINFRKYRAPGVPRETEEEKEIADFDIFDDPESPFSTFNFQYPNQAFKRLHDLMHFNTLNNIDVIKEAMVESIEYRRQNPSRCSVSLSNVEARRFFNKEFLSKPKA
Briefly: in vitro inhibition of human cytosolic phospholipase A2 (PLA2). It counts as biochemical.

In experiment [3] the target is binding of tritiated LTB4 to guinea pig lung membranes (Cavia porcellus, UniProt H0VYV8). Briefly: biochemical. The note with it: for Ki: read-out: pKi (mean -log Ki) (converted).
Sequence of binding of tritiated LTB4 to guinea pig lung membranes (H0VYV8 1-348): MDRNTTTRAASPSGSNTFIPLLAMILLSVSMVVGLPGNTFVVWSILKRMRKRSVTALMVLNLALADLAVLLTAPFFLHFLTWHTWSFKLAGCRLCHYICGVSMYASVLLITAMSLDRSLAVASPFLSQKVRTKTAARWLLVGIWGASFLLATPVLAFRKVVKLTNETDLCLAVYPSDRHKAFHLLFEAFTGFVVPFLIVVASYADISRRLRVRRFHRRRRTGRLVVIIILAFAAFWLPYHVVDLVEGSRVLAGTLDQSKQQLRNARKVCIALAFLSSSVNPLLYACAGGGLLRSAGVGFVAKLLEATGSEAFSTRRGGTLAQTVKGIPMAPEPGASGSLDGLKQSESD
Description: The effectiveness of compounds of Formula I to inhibit the binding of tritiated LTB4 to guinea pig lung membranes was determined as follows.
The binding reaction was terminated by the addition of 1 mL ice cold wash buffer (25 mM Tris-HCl, pH 7.5) followed immediately by vacuum filtration over Whatman GF/C glass fiber filters using a Brandel (Gaithersburg, Md.) 48 place harvester. The filters were washed three times with 1 mL of wash buffer. Retained radioactivity was determined by liquid scintillation counting at 50% counting efficiency using Ready Protein Plus cocktail (Beckman, Fullerton, Calif.). Nondisplaceable binding was determined in the presence of 1 μM LTB4 and was usually less than 10% of total binding. […] The data reported below is the mean -log Ki, otherwise known as the pKi, for n experiments.

Take `CCc1cc(-c2ccccc2)c(O)cc1OCCCCCC(C)(C)c1nn[nH]n1.[Na]`: the “inhibition of human synovial PLA2” value in experiment [1] was “in vitro inhibitors”. The “inhibition of human cytosolic PLA2” value in experiment [2] is on record as “in vitro inhibitors”.

As for `CCCc1c(OCCCOc2cc(O)c(-c3ccc(F)cc3)cc2CC)ccc2c1OC(C(=O)O)CC2` (centres unmarked) [Example 55, 8-Propyl-7-[3-[4-(4-fluorophenyl)-2-ethyl-5-hydroxyphenoxy]propoxy]-3,4-dihydro-2H-1-benzopyran-2-carboxylic acid], the Ki in experiment [3] is 2.95 nM. Also, in experiment [1], the “inhibition of human synovial PLA2” value is given as “in vitro inhibitors”. The “inhibition of human cytosolic PLA2” value in experiment [2] is “in vitro inhibitors”.

Consider `CCCc1c(OCCCOc2cc(O)c(-c3ccccc3)cc2CC)cccc1OC(C)C(=O)O` (centres unmarked) [Example 56, 2-[3-[3-[(5-Ethyl-2-hydroxy[1,1'-biphenyl]-4-yl)oxy]propoxy]-2-propylphenoxy]propanoic acid], for which the inhibition constant Ki in experiment [3] is 9.33 nM. The “inhibition of human synovial PLA2” value in experiment [1] was “in vitro inhibitors”. Further, in experiment [2], the “inhibition of human cytosolic PLA2” value was “in vitro inhibitors”.

For `CCc1cc(-c2ccc(F)cc2)c(O)cc1OCCCOc1cccc(Oc2ccccc2C(=O)O)c1Cc1ccccc1` [Example 76, 2-[2-(Phenylmethyl)-3-[3-[2-ethyl-5-hydroxy-4-(4-fluorophenyl)phenoxy]propoxy]phenoxy]benzoic acid], the Ki in experiment [3] was 53.7 nM.

Consider `CCCc1c(OCCCOc2cc(O)c(-c3ccc(F)cc3)cc2CC)cccc1Oc1ccccc1CC(=O)O` [Example 77, 2-[2-Propyl-3-[3-[2-ethyl-5-hydroxy-4-(4-fluorophenyl)phenoxy]propoxy]phenoxy]phenylacetic acid], for which the Ki in experiment [3] is 8.13 nM.

With `CCCc1c(OCCCOc2cc(O)c(-c3ccc(F)cc3)cc2CC)cccc1C(=O)c1ccccc1C(=O)O` [Example 78, 2-[2-Propyl-3-[3-[2-ethyl-5-hydroxy-4-(4-fluorophenyl)phenoxy]propoxy]benzoyl]benzoic acid], in experiment [3], the Ki was 9.55 nM.

Turning to `CCCc1c(Cc2ccccc2C(=O)O)cccc1OCCCOc1cc(O)c(-c2ccc(F)cc2)cc1CC` [Example 79, 2-[[2-Propyl-3-[3-[2-ethyl-5-hydroxy-4-(4-fluorophenyl)phenoxy]propoxy]phenyl]methyl]benzoic acid], the Ki in experiment [3] was 10.5 nM.

In the case of `CCCc1c(OCCCOc2cc(O)c(-c3ccc(F)cc3)cc2CC)cccc1Sc1ccccc1C(=O)O` [Example 80, 2-[2-Propyl-3-[3-[2-ethyl-4-(4-fluorophenyl)-5-hydroxyphenoxy]propoxy]thiophenoxy]benzoic acid], the Ki in experiment [3] was 11.2 nM.

`CCCc1c(OCCCOc2cc(O)c(-c3ccc(F)cc3)cc2CC)cccc1[S+]([O-])c1ccccc1C(=O)O` (centres unmarked) [Example 81, 2-[2-Propyl-3-[3-[2-ethyl-4-(4-fluorophenyl)-5-hydroxyphenoxy]propoxy]phenylsulfinyl]benzoic acid]: the inhibitory constant (Ki) in experiment [3] was 1.35 nM.

For the compound `CCCc1c(OCCCOc2cc(O)c(-c3ccc(F)cc3)cc2CC)cccc1S(=O)(=O)c1ccccc1C(=O)O` [Example 82, 2-[2-Propyl-3-[3-[2-ethyl-4-(4-fluorophenyl)-5-hydroxyphenoxy]propoxy]phenylsulfonyl]benzoic acid hydrate], the Ki in experiment [3] was 10.2 nM.

In the case of `CCc1cc(-c2ccc(F)cc2)c(O)cc1OCCCOc1ccc(C#CCCC(=O)O)cc1CCC(=O)O` [Example 83, 5-[3-[2-(1-Carboxy)ethyl]-4-[3-[2-ethyl-4-(4-fluorophenyl)-5-hydroxyphenoxy]propoxy]phenyl]-4-pentynoic acid disodium salt 0.4 hydrate], the Ki in experiment [3] was 0.0661 nM.

For `CCc1cc(-c2ccc(F)cc2)c(O)cc1OCCCCCC(c1ccc(OCC(=O)O)cc1)c1nn[nH]n1` (centres unmarked) [Example 85, 1-(4-(Carboxymethoxy)phenyl)-1-(1H-tetrazol-5-yl)-6-(2-ethyl-4-(4-fluorophenyl)-5-hydroxyphenoxy)hexane], in experiment [3], the Ki was 0.245 nM.

With `CCc1cc(-c2ccc(F)cc2)c(O)cc1OCCCOc1ccccc1/C=C/C(=O)O` [Example 87, 3-(2-(3-(2-Ethyl-4-(4-fluorophenyl)-5-hydroxyphenoxy)propoxy)phenyl)-E-propenoic acid], the Ki in experiment [3] is 9.55 nM.

Turning to `CCc1cc(-c2ccc(F)cc2)c(O)cc1OCCCOc1ccccc1/C=C(\C)C(=O)O` [Example 88, 3-(2-(3-(2-Ethyl-4-(4-fluorophenyl)-5-hydroxyphenoxy)propoxy)phenyl)-2-methyl-E-propenoic acid], in experiment [3], the Ki is 5.01 nM.

On to `CCc1cc(-c2ccc(F)cc2)c(O)cc1OCCCOc1ccccc1CCc1nnn[nH]1` [Example 89, 5-(2-(2-(3-(2-Ethyl-4-(4-fluorophenyl)-5-hydroxyphenoxy)propoxy)phenyl)ethyl)-1H-tetrazole], for which, in experiment [3], the Ki was 14.1 nM.

In the case of `CCc1cc(-c2ccc(F)cc2)c(O)cc1OCCCOc1cc(OCCCCC(=O)O)ccc1CCC(=O)O` [Example 90, 3-(2-(3-(2-Ethyl-4-(4-fluorophenyl)-5-hydroxyphenoxy)propoxy)-4-(4-carboxybutyloxy)phenyl)propionic acid], the Ki in experiment [3] is 20.9 nM.

For `CCc1cc(-c2ccc(F)cc2)c(O)cc1OCCCOc1cccc2c1CCC(=O)O2` [Example 91, 5-[3-[4-(4-Fluorophenyl)-2-ethyl-5-hydroxyphenoxy]propoxy]-3,4-dihydro-2H-1-benzopyran-2-one], the Ki in experiment [3] was 0.525 nM.

For the compound `CCc1cc(-c2ccc(F)cc2)c(O)cc1OCCCOc1cccc(CCC(=O)O)c1` [Example 92, 3-(3-{3-[2-Ethyl-4-(4-fluorophenyl)-5-hydroxyphenyloxy]propoxy}phenyl)propanoic acid], in experiment [3], the Ki was 8.32 nM.

On to `CCCc1cc(CCC(=O)O)ccc1OCCCOc1cc(O)c(-c2ccc(F)cc2)cc1CC` [Example 94, 3-(4-{3-[2-Ethyl-4-(4-fluorophenyl)-5-hydroxyphenyloxy]propoxy}-3-propylphenyl)propanoic acid], for which, in experiment [3], the inhibitory constant (Ki) was 20.9 nM.

On to `CCCc1c(CCC(=O)O)cccc1OCCCOc1cc(O)c(-c2ccc(F)cc2)cc1CC` [Example 95, 3-(3-{3-[2-Ethyl-4-(4-fluorophenyl)-5-hydroxyphenyloxy]propoxy}-2-propylphenyl)propanoic acid], for which, in experiment [3], the inhibition constant Ki is 5.5 nM.

For the compound `CCCc1c(CCC(=O)O)cccc1OCCCOc1cc(O)c(-c2ccccc2)cc1CC` [Example 96, disodium salt], the Ki in experiment [3] is 25.1 nM.

In the case of `CCc1cc(-c2ccc(F)cc2)c(O)cc1OCCCOc1cccc(C(=O)c2ccccc2C(=O)O)c1` [Example 97, 2-[3-[3-[2-Ethyl-5-hydroxy-4-(4-fluorophenyl)phenoxy]propoxy]benzoyl]benzoic acid disodium salt hemihydrate], the “pKi (mean -log Ki)” value in experiment [3] (inhibition of [3H]-LTB4 binding, guinea pig lung membranes, mean of n experiments, ~140 pM [3H]-LTB4, 45 minutes, 30° C., pH 6.5) came out at 7.67.

For `CCCc1c(OCCCOc2cc(O)c(-c3ccc(F)cc3)cc2CC)cccc1Oc1ccccc1C(=O)O` [sodium salt], the Ki in experiment [3] was 5.62 nM.

For the compound `CCCc1ccc(CCC(=O)O)cc1OCCCOc1cc(O)c(-c2ccc(F)cc2)cc1CC` [sodium salt], the Ki in experiment [3] is 102 nM.
